Publication PMC9837035 (Nature Communications, 2023)
Values joined by “and” are separate entries in the source; they are usually repeats but may differ in a detail not shown here. Identical values can stand only once.

Key:
CD34+ cells = test: Cell viability of CD34+ cells by cell counting; format: cell-based, human; conditions: for cell viability: CD34+ cells, 10 days
Experimental: (§1) HUDEP-2 cells and HiDEP-1 cells were grown in Stemline II Hematopoietic Stem Cell Expansion Medium (Sigma) supplemented with 50 ng/mL recombinant stem cell factor (SCF; R&D systems), 3 IU/mL recombinant erythropoietin (EPO; Kyowa Kirin), 1 μM dexamethasone (Dex; Sigma), and 1 μg/mL doxycycline (Sigma). A total of 1 × 10^5 human CD34^+ progenitor cells derived from bone marrow or peripheral blood (Lonza) were cultured on 35-mm dishes (BD Falcon) in StemSpan SFEMII medium with 50 ng/mL SCF, 5 IU/mL EPO, and 10 ng /mL interleukin 3 (IL-3; R&D systems). The medium was changed on day 4 to SCF, EPO, and 1 μM Dex, and the cells were transferred to 60-mm dishes (BD Falcon). Seven days after the onset of differentiation, cells were counted and 1 × 10^6 cells were re-plated on 100-mm dishes (BD Falcon) with SCF, EPO, and Dex. The rat myoblast cell line H9c2, HEK293T, and PLAT-E cells were maintained in Dulbecco’s modified Eagle’s medium (Thermo Fisher Scientific) supplemented with 10% heat-inactivated fetal bovine serum (FBS) and penicillin/streptomycin. All cells were cultured at 37 °C under 5% CO2.

[1] = system: HbF in CD34+-derived cells; test: Flow cytometry of HbF-expressing CD34+-derived cells; format: cell-based, human
Experimental: For the analysis of HbF expression, HUDEP-2 cells or cells differentiated from human CD34 + progenitor cells were fixed in 0.05% glutaraldehyde for 10 min, then washed two times with PBS containing 2% FBS (PBS/2% FBS) and permeabilized with 0.1% Triton X-100 (prepared in PBS/2% FBS; Life Technologies) for 5 min. After washing with PBS/2% FBS two times, cells were stained with allophycocyanin (APC)-conjugated HbF antibody (1:1, Invitrogen, MHFH05). One million cells were incubated with the HbF–APC antibody for 30 min in the dark at 4 °C. Cells were washed twice with PBS/2% FBS, then suspended in 0.2 ml PBS/2% FBS and analyzed using a FACSCalibur (Becton Dickinson). To assess erythroid differentiation, hematopoietic cells differentiated from human CD34 cells were stained with FITC-conjugated CD45 antibody (1:1, Becton Dickinson, 555482) and APC-conjugated glycophorin A antibody (1:20, Becton Dickinson, 551336). Stained cells were suspended in 0.2 ml PBS/2% FBS containing 1 μg/ml propidium iodide (Sigma) and analyzed by FACSCalibur. The results of flow cytometer were further analyzed by FlowJo software (Becton Dickinson).

BGLT3 RNA in CD34+ cells = test: RT-qPCR of BGLT3 in CD34+ cells; format: cell-based, human; conditions: for BGLT3 expression in CD34+ cells treated with hydroxyurea: relative to DMSO = 1, replicate values; for BGLT3 expression: primary human CD34+ cells
Experimental: as §1
Total cellular RNA was prepared using the Tissue Total RNA Mini Kit (FAVORGEN), and cDNA was synthesized using ReverTra Ace Master Mix (TOYOBO). Expression of target genes was analyzed using THUNDERBIRD SYBR qPCR Mix (TOYOBO) on a CFX Connect Real Time System (Bio-Rad). The qPCR data were acquired on CFX Maestro (Bio-Rad). Primers are listed in Supplementary Table 10. GAPDH was used as a reference. Primers were purchased from INTEGRATED DNA TECHNOLOGIES or FASMAC.

MLL3 = molecular target: T1, MLL3 (Homo sapiens, UniProt Q8NEZ4); test: Radioisotope-based methyltransferase assay (selectivity); format: biochemical
T1 construct: purchased Reaction Biology

GLP [2] = molecular target: T2, GLP (Homo sapiens, UniProt Q9H9B1); test: biochemical
T2 sequence (Q9H9B1 1-1298): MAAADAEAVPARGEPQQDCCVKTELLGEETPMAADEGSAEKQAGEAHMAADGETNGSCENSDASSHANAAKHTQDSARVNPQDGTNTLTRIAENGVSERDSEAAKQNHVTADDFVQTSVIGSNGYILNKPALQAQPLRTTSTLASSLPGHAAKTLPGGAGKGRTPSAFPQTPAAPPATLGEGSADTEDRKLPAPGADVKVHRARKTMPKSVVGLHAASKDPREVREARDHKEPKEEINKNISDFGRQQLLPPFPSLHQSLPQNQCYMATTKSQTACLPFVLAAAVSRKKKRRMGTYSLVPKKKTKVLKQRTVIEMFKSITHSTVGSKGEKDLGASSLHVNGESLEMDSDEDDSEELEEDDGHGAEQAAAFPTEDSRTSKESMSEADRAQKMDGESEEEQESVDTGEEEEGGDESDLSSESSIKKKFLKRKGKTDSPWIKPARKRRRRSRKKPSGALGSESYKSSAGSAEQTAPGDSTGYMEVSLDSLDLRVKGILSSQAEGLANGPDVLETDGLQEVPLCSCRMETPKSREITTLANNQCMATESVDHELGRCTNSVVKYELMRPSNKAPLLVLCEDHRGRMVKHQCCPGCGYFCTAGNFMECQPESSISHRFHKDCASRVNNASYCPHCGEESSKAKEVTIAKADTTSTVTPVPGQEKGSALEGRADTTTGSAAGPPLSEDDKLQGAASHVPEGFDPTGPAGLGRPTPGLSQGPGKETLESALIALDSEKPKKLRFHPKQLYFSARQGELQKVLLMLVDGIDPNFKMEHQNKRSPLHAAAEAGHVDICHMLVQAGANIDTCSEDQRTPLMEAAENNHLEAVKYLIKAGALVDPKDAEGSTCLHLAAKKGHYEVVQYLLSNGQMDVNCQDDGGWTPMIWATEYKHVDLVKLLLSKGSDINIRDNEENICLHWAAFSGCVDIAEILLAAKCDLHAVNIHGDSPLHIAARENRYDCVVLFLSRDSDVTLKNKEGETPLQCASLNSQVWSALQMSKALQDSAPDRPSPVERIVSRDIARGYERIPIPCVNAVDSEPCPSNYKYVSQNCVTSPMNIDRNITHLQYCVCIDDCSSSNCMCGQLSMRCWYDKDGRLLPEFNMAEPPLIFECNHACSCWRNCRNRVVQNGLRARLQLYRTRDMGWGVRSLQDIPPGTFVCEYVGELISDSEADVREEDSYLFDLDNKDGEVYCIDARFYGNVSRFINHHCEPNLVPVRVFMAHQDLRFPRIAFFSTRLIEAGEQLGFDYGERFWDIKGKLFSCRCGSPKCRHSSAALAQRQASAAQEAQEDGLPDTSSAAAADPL

GLP [3] = molecular target: T2, GLP; test: Radioisotope-based methyltransferase assay (selectivity)

## NC(=O)NO [Hydroxyurea, hydroxyurea]
CD34+ cells; 10 μM
  Cell viability in CD34+ cells: 3.83 10*7 cells and 4.25 10*7 cells and 4.44 10*7 cells
CD34+ cells; 50 μM
  Cell viability in CD34+ cells: 1.8 10*7 cells and 1.47 10*7 cells and 1.48 10*7 cells
CD34+ cells
  cell viability: severe cytotoxicity
[1]
  HbF induction compared with RK-701: less effective in inducing HbF than RK-701
[1]; day 11, 10 μM, listed as HU
  Percentage of HbF-expressing cells: 32.8% and 45.2% and 37.4%
[1]; day 11, 50 μM, listed as HU
  Percentage of HbF-expressing cells: 63% and 65.2% and 61.5%
BGLT3 RNA in CD34+ cells; DAY7, 10 μM
  BGLT3 expression in CD34+ cells treated with hydroxyurea: 1.048 and 1.203 and 1.026
BGLT3 RNA in CD34+ cells; DAY7, 50 μM
  BGLT3 expression in CD34+ cells treated with hydroxyurea: 1.743 and 1.82 and 2.054
BGLT3 RNA in CD34+ cells; DAY9, 10 μM
  BGLT3 expression in CD34+ cells treated with hydroxyurea: 1.52 and 1.518 and 1.0769
BGLT3 RNA in CD34+ cells; DAY9, 50 μM
  BGLT3 expression in CD34+ cells treated with hydroxyurea: 2.568 and 2.893 and 2.233
BGLT3 RNA in CD34+ cells
  BGLT3 expression: promoted BGLT3 expression

## Cc1c(C(=O)NC(CCC2CC2)C(=O)Nc2ccc(C#N)cc2)[nH]c2c1C(=O)CC(C)(C)C2 (stereo not drawn) [RK-701]
MLL3; MLL3, 1 μM SAM
  IC50: > 100 µM
MLL3; MLL3, RK-701 in duplicate
  IC50: > 100 µM
GLP [2]
  IC50: 0.0486 µM and 0.0577 µM
CD34+ cells; 0.01 μM
  Cell viability in CD34+ cells: 4.59 10*7 cells and 4.56 10*7 cells and 4.57 10*7 cells
CD34+ cells; 0.03 μM
  Cell viability in CD34+ cells: 4.39 10*7 cells and 4.41 10*7 cells and 4.97 10*7 cells
CD34+ cells; 0.1 μM
  Cell viability in CD34+ cells: 4.54 10*7 cells and 4.45 10*7 cells and 4.75 10*7 cells
CD34+ cells; 0.3 μM
  Cell viability in CD34+ cells: 4.11 10*7 cells and 4.64 10*7 cells and 4.5 10*7 cells
CD34+ cells; 1 μM
  Cell viability in CD34+ cells: 4.01 10*7 cells and 4.28 10*7 cells and 4.43 10*7 cells
CD34+ cells; 3 μM
  Cell viability in CD34+ cells: 4.31 10*7 cells and 4.53 10*7 cells and 4.47 10*7 cells
CD34+ cells
  cell viability: without affecting cell viability
GLP [3]
  IC50: 0.053 µM
[1]; day 11, 0.01 μM
  Percentage of HbF-expressing cells: 22.7% and 27% and 19%
[1]; day 11, 0.03 μM
  Percentage of HbF-expressing cells: 41.2% and 51.3% and 42.4%
[1]; day 11, 0.1 μM
  Percentage of HbF-expressing cells: 71.3% and 76.8% and 67.7%
[1]; day 11, 0.3 μM
  Percentage of HbF-expressing cells: 83.5% and 83.7% and 81.1%
[1]; day 11, 1 μM
  Percentage of HbF-expressing cells: 84.2% and 87.4% and 83.5%
[1]; day 11, 3 μM
  Percentage of HbF-expressing cells: 84.8% (2×) and 85.2%
BGLT3 RNA in CD34+ cells
  BGLT3 expression: induced BGLT3 expression

## Nc1ncnc2c1ncn2[C@@H]1O[C@H](CSCC[C@H](N)C(=O)O)[C@@H](O)[C@H]1O [SAH, S-(5'-Adenosyl)-L-homocysteine, reference compound]
MLL3; MLL3, 1 μM SAM
  IC50: 49.7 µM
MLL3; MLL3, RK-701 in duplicate
  IC50: 49.7 µM
GLP [2]
  IC50: 3.86 µM
GLP [3]; 1 μM SAM
  IC50: 3.86 µM
